Results taken from patent US20220395443A1, “Oral Care Compositions and Methods” (Colgate-Palmolive Company, priority 2021, published 2022).
Where two headings read alike, the source gives them in different places.

Columns and labels:
[1] = test system: Haemophilus parainfluenzae; assay: Growth of nitrate reducing species in optical density assay; assay type: cell-based; conditions: for Effect on growth of Haemophilus parainfluenzae (in words): 1.5% KNO3 and 0.75% L-arginine alone or in combination, 26 h; for Optical Density (610 nm): pure culture, 0.75% L-arginine, 0.75% KNO3 (so in the source), or 1.5% KNO3 + 0.75% L-arginine by wt. of solution added, measured every two hours for 26 h, control 1.02
Method: The impact of 1.5% KNO3 and 0.75% L-arginine alone or in combination on the growth of one known nitrate reducing species, Haemophilus parainfluenzae, is studied. Pure cultures of each species are grown in the presence of the compounds. Note, the wt. % of the potassium nitrate and L-arginine is relative to the total weight of the solution added to the culture. The growth is monitored by measuring the optical density at 610 nm every two hours for 26 h.

salivary biofilms = assay: In vitro oral biofilm model, simple solutions: total NO3/NO2 in supernatant (colorimetric kit); assay type: cell-based, human; conditions: for NO3/NO2 (nmole per sample): biofilm supernatant, 2 min treatments twice daily, 5 days, 3% KNO3 and/or 1.5% L-arginine, all with 1.7% TSPP, untreated 5.93; for NO3/NO2 output (in words): repeated treatment with simple solutions
Method: (§1) An in vitro model for oral biofilms is treated with either 3% KNO3 or 1.5% L-arginine alone or in combination as simple solutions. Whole human saliva was used to inoculate sterile hydroxyapatite discs held in a vertical position using a specially designed steel lid as indicated in Kumar et al. (2019). Biofilms in Human Diseases: Treatment and Control Nature, the contents of which are incorporated herein by reference in their entirety.
(§2) Following 6 h of inoculum, biofilms are treated for 2 min with simple solutions, rinsed and returned to fresh, filter-sterilized saliva. Biofilms were treated 2 times per day, with approximately 6 h between treatments for the subsequent 3 days. On the fifth day, biofilms are treated one time in the morning and then harvested approximately 3 h after treatment by sonication. Bacterial pellets are frozen and later subjected to DNA extraction and sequencing of the V3-V4 region of the 16 s ribosomal RNA subunit in order to identify the relative abundance of bacteria present in each sample to the genus level. The final supernatants were also retained, filter-sterilized and tested for total nitrate/nitrite concentrations to determine if any changes in nitrate production could be detected from the biofilm communities.
(§3) For these studies, all solutions were made fresh in dH2O and used within 1 h of being made. Solutions were prepared by weight to contain each of the following: 3% KNO3, 1.5% L-arginine, both by weight of the solution, or no active. Additionally, all solutions contained 1.7% TSPP for additional stabilization. Solution pH values were not adjusted before treatment.
At the end of the experiment, filter sterilized samples were tested for total NO3/NO2 using a colorimetric nitrate/nitrite assay kit (Sigma). Due to low sample volumes, samples were only tested for total NO3/NO2.

[2] = test system: Haemophilus parainfluenzae; assay: In vitro oral biofilm model, simple solutions: 16S V3-V4 sequencing; assay type: cell-based; conditions: simple solutions: 3% KNO3 and/or 1.5% L-arginine; untreated (PBS) 0.14
Method: as §1, §2, §3
(§4) The composition of the microbiome of each sample is studied to assess the bacterial community shifts induced by treatment with: potassium nitrate alone, L-arginine alone, or potassium nitrate and L-arginine in combination.

[3] = test system: Neisseria flavescens subflava; assay: as above; assay type: cell-based; conditions: simple solutions: 3% KNO3 and/or 1.5% L-arginine; untreated (PBS) 1.23
Method: as §1, §2, §3, §4

[4] = test system: Prevotella melaninogenica; assay: as above; assay type: cell-based; conditions: simple solutions: 3% KNO3 and/or 1.5% L-arginine; untreated (PBS) 0.31
Method: as §1, §2, §3, §4

Rothia dentocariosa = assay: as above; assay type: cell-based
Method: as §1, §2, §3, §4

Veillonella parvula = assay: as above; assay type: cell-based; conditions: simple solutions: 3% KNO3 and/or 1.5% L-arginine; untreated (PBS) 4.59
Method: as §1, §2, §3, §4

Oral biofilms = assay: Measurement of nitrite in oral biofilms after potassium nitrate challenge; assay type: cell-based, human; conditions: treated twice a day for five days with simple solutions; total nitrite after five-minute challenge with 5% potassium nitrate; untreated 0.11
Method: Oral biofilms are grown on hydroxyapatite discs in saliva as discussed in the process detailed in Example 3. Over the course of five days, the biofilms receive treatment twice a day. Specifically, the biofilms receive treatment with samples containing simple solutions of water and 3% (by wt.) potassium nitrate and 5% (by wt.) arginine or a simple solution of water and 3% (by wt.) potassium nitrate alone. Following treatment, there is measurement of total nitrite (mg/L) in the biofilms following a five-minute challenge with 5% potassium nitrate.

Compound | Effect on growth of Haemophilus parainfluenzae (in words) [1] | Optical Density (610 nm) [1] | NO3/NO2 (nmole per sample) (salivary biofilms) | NO3/NO2 output (in words) (salivary biofilms) | Relative abundance of Haemophilus parainfluenzae [2] | Relative abundance of Neisseria flavescens subflava [3] | Relative abundance of Prevotella melaninogenica [4] | Relative abundance of Rothia dentocariosa (Rothia dentocariosa) | Relative abundance of Veillonella parvula (Veillonella parvula) | Biofilm Nitrite Measurement (Oral biofilms) [mg/L] | Relative abundance of Rothia dentocariosa (Rothia dentocariosa; simple solutions: 3% KNO3 and/or 1.5% L-arginine, untreated (PBS) 0.02)
O=[N+]([O-])[O-].[K+] [KNO3, potassium nitrate] | no effect on the growth | 0.99 | 6.00 | small increases | 0.04 relative units of abundance | 0.05 relative units of abundance | 0.67 relative units of abundance | 0 relative units of abundance | 0.78 relative units of abundance | 0.8 | 
N=C(N)NCCC[C@H](N)C(=O)O [L-arginine] | slightly reduce growth | 0.65 | 6.01 | small increases | 0.83 relative units of abundance | 0.54 relative units of abundance | 0.07 relative units of abundance |  | 3.28 relative units of abundance |  | 0.02 relative units of abundance
